# In ChEMBL document CHEMBL1201862, “PubChem BioAssay data set” (2004):
# Activity calls are given as the source filed them.
# What was measured:
# [1] = molecular target: T1, Tyrosine-protein phosphatase non-receptor type 7 (Homo sapiens, UniProt P35236); test: HePTP tyrosine phosphatase activity blockers – biochemical, absorbance, leukemia target, primary screen (AID 521); type: functional
# T1 sequence (P35236 whole entry): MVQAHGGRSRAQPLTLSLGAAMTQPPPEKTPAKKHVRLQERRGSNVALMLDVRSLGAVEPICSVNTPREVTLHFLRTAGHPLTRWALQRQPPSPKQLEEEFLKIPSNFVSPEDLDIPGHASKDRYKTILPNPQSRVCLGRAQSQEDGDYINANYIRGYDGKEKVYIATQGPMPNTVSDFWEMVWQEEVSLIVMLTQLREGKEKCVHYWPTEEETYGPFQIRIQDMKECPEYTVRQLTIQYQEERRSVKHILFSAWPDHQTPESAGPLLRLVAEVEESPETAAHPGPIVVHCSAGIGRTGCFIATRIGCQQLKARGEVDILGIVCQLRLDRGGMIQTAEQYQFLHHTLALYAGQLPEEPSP
# [2] = molecular target: Ubiquitin carboxyl-terminal hydrolase BAP1 (Homo sapiens, UniProt Q92560); test: inhibition of BAP1 ubiquitin hydrolase activity – biochemical, dose response (AID 714); type: functional
# [3] = molecular target: T2, Voltage-gated N-type calcium channel alpha-1B subunit/Amyloid beta A4 precursor protein-binding family A member 1 (Homo sapiens, UniProt Q00975+Q02410); type: protein assay
# T2 sequence (Q00975 whole entry): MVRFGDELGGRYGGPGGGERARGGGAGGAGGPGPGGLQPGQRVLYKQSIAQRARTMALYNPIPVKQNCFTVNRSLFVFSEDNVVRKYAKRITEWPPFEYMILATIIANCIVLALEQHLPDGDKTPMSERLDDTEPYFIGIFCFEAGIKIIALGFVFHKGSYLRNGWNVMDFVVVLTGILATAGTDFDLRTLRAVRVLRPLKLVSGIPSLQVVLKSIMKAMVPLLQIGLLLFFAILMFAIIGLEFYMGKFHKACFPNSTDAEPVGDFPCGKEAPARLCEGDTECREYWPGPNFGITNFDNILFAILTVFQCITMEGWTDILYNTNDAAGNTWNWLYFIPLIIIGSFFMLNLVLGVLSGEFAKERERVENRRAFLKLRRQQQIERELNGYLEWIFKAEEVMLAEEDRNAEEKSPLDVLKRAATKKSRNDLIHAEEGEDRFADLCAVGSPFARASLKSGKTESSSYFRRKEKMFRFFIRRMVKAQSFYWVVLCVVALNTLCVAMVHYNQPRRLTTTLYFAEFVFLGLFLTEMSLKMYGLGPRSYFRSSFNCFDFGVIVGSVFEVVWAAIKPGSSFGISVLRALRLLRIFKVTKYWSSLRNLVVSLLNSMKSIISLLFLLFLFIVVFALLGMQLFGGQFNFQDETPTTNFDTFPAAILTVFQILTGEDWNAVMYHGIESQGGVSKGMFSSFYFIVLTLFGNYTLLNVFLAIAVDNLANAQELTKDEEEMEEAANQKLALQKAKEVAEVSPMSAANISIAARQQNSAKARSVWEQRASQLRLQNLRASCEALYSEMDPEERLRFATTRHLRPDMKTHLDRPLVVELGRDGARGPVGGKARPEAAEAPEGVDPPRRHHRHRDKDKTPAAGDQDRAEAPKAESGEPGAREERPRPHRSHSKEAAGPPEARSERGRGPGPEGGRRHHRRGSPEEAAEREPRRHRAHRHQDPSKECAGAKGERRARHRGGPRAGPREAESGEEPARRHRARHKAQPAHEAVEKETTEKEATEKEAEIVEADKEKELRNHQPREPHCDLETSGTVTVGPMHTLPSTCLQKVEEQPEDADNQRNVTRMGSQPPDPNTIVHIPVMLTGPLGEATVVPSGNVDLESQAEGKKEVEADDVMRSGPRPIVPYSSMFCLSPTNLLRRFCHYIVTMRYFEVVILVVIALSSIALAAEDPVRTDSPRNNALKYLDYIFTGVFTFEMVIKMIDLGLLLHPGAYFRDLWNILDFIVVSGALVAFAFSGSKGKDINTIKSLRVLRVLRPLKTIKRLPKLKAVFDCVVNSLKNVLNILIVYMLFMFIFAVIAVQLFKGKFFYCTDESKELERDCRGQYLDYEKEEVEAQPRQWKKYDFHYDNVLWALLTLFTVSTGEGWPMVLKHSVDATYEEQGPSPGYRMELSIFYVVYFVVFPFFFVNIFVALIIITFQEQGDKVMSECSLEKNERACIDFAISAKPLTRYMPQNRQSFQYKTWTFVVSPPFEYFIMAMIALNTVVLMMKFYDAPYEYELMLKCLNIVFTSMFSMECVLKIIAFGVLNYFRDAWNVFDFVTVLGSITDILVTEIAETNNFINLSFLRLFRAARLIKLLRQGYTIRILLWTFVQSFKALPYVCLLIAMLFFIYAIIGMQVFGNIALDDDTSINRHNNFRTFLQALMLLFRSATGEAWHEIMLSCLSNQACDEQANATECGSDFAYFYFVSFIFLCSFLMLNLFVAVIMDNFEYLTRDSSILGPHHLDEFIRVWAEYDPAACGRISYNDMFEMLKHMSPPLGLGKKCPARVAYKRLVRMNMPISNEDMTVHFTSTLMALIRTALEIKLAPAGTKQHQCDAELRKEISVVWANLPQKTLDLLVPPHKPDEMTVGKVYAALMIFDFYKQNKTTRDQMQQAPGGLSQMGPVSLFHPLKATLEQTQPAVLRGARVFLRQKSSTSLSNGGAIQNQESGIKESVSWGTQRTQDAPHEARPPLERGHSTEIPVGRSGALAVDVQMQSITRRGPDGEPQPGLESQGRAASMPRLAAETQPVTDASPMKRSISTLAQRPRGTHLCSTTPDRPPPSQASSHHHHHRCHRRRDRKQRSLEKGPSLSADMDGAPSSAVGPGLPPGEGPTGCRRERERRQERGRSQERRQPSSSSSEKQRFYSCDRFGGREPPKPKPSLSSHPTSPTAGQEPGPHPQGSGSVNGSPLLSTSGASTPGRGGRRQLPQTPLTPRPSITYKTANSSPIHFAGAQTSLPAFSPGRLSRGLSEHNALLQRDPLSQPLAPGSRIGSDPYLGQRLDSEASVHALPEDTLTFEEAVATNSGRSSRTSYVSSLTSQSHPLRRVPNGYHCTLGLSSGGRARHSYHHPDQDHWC
# T2 sequence (Q02410 whole entry): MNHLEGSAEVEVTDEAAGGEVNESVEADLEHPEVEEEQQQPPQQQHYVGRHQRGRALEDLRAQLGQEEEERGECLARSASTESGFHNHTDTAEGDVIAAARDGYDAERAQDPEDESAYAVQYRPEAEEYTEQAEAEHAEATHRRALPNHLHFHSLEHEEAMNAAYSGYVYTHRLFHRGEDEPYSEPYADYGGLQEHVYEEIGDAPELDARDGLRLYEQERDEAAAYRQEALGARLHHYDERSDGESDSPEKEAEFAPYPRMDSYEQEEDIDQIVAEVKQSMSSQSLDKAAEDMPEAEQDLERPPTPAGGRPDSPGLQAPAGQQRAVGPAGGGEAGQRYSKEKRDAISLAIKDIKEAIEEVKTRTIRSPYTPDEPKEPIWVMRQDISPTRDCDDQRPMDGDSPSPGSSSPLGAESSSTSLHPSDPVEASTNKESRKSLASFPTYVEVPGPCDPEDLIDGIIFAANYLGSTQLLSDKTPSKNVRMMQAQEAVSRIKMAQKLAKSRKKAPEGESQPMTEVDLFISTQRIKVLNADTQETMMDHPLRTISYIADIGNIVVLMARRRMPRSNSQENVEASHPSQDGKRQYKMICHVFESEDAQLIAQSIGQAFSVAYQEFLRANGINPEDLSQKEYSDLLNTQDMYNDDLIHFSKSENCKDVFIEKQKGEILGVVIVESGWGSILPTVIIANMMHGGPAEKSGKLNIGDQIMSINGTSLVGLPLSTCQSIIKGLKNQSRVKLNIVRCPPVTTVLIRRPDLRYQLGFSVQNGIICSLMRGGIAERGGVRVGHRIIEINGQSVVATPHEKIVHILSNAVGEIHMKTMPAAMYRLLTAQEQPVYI
# [4] = molecular target: T2, Voltage-gated N-type calcium channel alpha-1B subunit/Amyloid beta A4 precursor protein-binding family A member 1; type: protein assay; remark: listed apart in the source
# [5] = M. tuberculosis H37Rv growth inhibitors, H37Rv strain (AID 1626); type: functional
# [6] = molecular target: Luciferin 4-monooxygenase (Photinus pyralis, UniProt P08659); test: inhibition of purified Photinus pyralis luciferase – biochemical, luminescence, dose response (AID 1891)
# Sequence of Luciferin 4-monooxygenase (P08659 whole entry): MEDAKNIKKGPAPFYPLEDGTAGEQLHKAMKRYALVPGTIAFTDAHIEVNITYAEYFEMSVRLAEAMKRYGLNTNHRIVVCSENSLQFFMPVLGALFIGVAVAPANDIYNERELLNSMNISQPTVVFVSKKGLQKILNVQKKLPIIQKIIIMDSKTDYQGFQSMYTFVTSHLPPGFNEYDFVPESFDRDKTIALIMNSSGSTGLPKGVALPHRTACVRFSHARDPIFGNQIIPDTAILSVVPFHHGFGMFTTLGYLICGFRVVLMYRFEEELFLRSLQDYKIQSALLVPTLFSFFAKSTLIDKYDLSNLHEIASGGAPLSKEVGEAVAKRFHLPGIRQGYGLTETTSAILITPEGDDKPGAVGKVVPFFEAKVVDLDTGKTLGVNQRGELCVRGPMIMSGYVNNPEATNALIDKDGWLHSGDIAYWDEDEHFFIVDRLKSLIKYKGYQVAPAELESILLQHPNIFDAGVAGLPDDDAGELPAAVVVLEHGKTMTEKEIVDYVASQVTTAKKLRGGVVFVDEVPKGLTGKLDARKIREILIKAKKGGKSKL
# [7] = Luminescence Cell-Based Dose Confirmation HTS to Identify Inhibitors of Platelet Dense Granule Release. [Related pubchem assays: 1663 (Primary HTS), 1678 (Summary of Project)]; type: functional
# Protein RecA = molecular target: T3, Protein RecA (Mycobacterium tuberculosis, UniProt P9WHJ3); test: Fluorescence Cell-Free Homogeneous Dose Retest to Identify Inhibitors of RecA-Intein Splicing Activity. [Related pubchem assays (depositor defined):AID2097, AID2223, AID489010, AID492950]; type: functional
# T3 sequence (P9WHJ3 whole entry): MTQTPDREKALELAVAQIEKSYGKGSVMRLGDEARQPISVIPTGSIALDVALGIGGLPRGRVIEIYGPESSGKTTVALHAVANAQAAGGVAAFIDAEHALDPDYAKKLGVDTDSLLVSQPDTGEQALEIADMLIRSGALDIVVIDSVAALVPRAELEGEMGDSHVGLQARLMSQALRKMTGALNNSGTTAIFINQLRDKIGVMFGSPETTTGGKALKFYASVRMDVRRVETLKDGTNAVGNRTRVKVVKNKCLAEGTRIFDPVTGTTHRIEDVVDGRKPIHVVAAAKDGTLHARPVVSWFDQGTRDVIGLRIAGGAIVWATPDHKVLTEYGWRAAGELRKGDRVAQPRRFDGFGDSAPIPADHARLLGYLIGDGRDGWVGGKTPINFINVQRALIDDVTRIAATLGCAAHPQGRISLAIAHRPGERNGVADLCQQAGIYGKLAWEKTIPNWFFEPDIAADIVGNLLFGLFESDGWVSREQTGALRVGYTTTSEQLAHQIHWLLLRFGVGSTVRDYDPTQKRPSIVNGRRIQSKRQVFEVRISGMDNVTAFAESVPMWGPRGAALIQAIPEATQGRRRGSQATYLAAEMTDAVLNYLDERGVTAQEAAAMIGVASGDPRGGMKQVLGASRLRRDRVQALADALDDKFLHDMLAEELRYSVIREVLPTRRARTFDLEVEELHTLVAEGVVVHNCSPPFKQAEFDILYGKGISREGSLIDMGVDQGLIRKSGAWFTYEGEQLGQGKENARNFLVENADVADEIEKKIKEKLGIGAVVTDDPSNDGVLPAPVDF
# [8] = molecular target: T4, Replicative DNA helicase DnaB (Mycobacterium tuberculosis, UniProt P9WMR3); test: DnaB intein splicing inhibitors, dose response, biochemical, cell-free fluorescence (AID 449749); type: functional
# T4 sequence (P9WMR3 whole entry): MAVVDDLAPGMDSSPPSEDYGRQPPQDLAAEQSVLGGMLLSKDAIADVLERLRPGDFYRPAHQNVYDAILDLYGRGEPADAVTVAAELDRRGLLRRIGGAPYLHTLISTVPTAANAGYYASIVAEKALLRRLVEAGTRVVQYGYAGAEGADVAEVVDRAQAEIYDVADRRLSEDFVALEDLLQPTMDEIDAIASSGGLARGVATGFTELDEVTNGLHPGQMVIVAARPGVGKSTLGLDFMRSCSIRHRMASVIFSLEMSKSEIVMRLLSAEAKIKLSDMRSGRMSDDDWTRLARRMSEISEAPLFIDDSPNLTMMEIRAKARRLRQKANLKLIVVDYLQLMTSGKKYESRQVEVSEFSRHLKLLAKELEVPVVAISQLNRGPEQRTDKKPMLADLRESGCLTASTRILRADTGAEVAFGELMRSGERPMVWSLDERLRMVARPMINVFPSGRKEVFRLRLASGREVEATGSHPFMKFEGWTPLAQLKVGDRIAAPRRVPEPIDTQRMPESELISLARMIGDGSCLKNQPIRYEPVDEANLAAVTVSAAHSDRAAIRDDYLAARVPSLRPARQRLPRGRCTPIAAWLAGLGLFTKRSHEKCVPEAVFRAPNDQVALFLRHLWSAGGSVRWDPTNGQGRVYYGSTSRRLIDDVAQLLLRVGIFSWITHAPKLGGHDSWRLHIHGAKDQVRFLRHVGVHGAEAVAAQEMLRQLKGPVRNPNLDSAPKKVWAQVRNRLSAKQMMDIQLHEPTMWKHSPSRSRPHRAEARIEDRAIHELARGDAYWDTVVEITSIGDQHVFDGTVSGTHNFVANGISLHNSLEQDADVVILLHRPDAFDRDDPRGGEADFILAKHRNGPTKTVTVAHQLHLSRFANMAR
# [9] = Luminescent dose response cell-based high throughput screening assay for inhibitors of the Janus kinase 2 mutant JAK2V617F. [Related pubchem assays: 1446 (Primary screen.), 1521 (Confirmation assay.), 1486 (Counter screen.)]; type: functional
# [10] = molecular target: T5, Rac GTPase-activating protein 1 (Homo sapiens, UniProt Q9H0H5); test: blockers of MgcRacGAP-driven Rac1 GTP hydrolysis – biochemical, ADP Hunter fluorescence, primary and confirmatory, confirmation (AID 624330); type: functional
# T5 sequence (Q9H0H5 whole entry): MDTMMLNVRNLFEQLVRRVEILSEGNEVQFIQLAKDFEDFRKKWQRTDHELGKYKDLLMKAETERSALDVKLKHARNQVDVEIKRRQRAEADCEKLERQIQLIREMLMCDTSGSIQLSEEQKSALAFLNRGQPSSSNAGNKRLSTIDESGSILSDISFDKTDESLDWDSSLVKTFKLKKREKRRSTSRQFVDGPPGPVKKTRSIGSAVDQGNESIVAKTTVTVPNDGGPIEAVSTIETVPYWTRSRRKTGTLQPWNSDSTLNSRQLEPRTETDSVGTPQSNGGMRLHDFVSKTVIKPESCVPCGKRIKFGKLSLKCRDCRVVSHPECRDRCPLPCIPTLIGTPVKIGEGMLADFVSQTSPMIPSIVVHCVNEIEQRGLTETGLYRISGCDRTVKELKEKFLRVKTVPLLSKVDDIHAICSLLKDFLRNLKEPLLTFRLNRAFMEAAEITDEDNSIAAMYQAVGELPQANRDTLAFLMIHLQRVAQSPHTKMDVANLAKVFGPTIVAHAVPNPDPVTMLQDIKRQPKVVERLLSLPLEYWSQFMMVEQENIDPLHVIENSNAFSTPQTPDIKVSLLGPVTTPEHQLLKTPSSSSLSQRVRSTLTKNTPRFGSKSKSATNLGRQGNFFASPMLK
# [11] = molecular target: Sphingosine 1-phosphate receptor 2 (Homo sapiens, UniProt O95136); test: Dose Response Cell Based Assay for Agonists of the S1P2 Receptor. [Related pubchem assays: 729, 736, 843 ]; type: functional
# Sequence of Sphingosine 1-phosphate receptor 2 (O95136 whole entry): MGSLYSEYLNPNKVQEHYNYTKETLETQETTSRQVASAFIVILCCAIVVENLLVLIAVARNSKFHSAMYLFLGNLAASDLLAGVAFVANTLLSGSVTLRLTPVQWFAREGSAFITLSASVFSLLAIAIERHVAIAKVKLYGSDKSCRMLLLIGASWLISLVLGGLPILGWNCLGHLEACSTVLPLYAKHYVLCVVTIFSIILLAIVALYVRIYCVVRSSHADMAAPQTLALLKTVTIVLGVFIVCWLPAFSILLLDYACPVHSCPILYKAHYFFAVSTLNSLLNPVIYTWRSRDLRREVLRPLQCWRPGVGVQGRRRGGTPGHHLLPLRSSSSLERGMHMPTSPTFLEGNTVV
# INS1 = test: INS-1E survival protection against cytokine death – cell-based, luminescence, retest, dose response (AID 449756); type: functional; details: Rattus norvegicus;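 also: cell death triggered by IL-1 beta plus TNF-alpha plus IFN-gamma mixture; protective hits raise ATP signal compared with cytokine alone wells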
# cells [12] = type: functional, cell-based
# Streptokinase A = molecular target: T6, Streptokinase A (Streptococcus pyogenes serotype M1, UniProt P10520); test: viability-normalized secreted streptokinase activity reduction – plasminogen activation absorbance, OD405, dose response (AID 1914); type: functional, Streptococcus pyogenes M1 GAS;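 also: secreted streptokinase activity via plasminogen activation per viability signal from cell pellet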
# T6 sequence (P10520 whole entry): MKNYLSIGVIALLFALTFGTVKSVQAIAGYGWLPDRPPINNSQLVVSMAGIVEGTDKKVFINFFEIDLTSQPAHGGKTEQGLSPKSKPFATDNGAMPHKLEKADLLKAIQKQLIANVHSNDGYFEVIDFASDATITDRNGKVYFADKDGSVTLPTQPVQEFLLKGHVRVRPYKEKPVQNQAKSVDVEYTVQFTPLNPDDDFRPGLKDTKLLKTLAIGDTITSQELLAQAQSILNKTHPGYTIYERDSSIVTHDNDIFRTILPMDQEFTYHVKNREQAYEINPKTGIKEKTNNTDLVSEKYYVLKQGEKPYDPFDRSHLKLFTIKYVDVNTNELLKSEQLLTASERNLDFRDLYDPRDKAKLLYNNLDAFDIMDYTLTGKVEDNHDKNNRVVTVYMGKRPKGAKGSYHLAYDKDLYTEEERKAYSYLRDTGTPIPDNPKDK
# [13] = NIH3T3 cell viability loss – ATP luminescence, mouse fibroblasts, counter-screen, dose response (AID 2010); type: functional, cell-based;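 also: cells exposed to compound for about 90 hours before reading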
# Galanin receptor type 2 = Galanin receptor type 2 (Homo sapiens, UniProt O43603); test: Dose Response cell-based high-throughput screening assay to identify agonists of galanin receptor 2 (GALR2). [Related pubchem assays: 864 ]; type: functional
# Sequence of Galanin receptor type 2 (O43603 whole entry): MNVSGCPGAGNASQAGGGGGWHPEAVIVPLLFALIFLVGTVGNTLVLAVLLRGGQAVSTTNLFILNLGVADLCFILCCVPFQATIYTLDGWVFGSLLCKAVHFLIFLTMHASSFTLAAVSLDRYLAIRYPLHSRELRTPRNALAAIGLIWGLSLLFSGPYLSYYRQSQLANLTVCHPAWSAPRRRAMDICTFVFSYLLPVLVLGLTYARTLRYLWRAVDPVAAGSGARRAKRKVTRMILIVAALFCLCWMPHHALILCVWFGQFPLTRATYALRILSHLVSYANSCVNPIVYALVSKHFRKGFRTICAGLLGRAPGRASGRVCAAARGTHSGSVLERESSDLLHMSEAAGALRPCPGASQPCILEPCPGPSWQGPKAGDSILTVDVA
# Streptococcus = test: GAS UMAA2166 growth inhibition – luminescence, BacTiterGlo, counter-screen for streptokinase expression inhibitor project, dose response (AID 1915); type: functional, organism-based;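 also: potency for reduction of bacterial viability or growth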
# cells [14] = type: functional, cell-based; remark: listed apart in the source
# [15] = tested on: Streptococcus sp. 'group A'; test: Streptococcus pyogenes SK(-)GAS viability under kanamycin – luminescence, BacTiterGlo, confirmation, counter-screen for streptokinase expression inhibitor project, dose response (AID 1900); type: functional, organism-based
# [16] = Trypanosoma cruzi growth suppression in host cells – NIH3T3 host cells, beta-gal luminescence, confirmation (AID 2044); type: functional, cell-based;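 also: intracellular parasites grown in NIH/3T3 mouse fibroblasts as host cells; luminescent beta-galactosidase reporter signal from transgenic T. cruzi replicating inside host cells; inhibitors lower the luminescence signal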
# Cytochrome P450 2C19 = Cytochrome P450 2C19 (Homo sapiens, UniProt P33261); test: qHTS Assay for Inhibitors and Substrates of Cytochrome P450 2C19. [Related pubchem assays: 410 ]; type: ADME; details: read-out: Potency
# Sequence of Cytochrome P450 2C19 (P33261 whole entry): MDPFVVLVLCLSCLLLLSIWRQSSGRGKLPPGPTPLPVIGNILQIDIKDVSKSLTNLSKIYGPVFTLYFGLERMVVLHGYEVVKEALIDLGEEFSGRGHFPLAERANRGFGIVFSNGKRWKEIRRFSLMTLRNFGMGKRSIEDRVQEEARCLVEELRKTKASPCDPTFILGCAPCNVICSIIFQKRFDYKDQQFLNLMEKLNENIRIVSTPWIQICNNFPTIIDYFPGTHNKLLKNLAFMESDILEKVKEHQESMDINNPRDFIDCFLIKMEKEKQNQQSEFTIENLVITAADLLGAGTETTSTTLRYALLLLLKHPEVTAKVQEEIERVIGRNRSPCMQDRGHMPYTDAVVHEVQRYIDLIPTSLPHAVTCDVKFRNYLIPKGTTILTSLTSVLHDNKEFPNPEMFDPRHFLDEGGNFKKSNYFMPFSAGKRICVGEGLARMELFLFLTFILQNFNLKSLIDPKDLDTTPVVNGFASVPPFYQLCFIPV
structure (smiles),measurement,setting,value
Nc1nc(Nc2cccc3ccccc23)nc(C2CCCC2=O)n1 (configuration not stated),IC50,[1],> 100 µM (not active)
COc1ccc(C2CC(=O)N3CN(c4ccc(C)c(Cl)c4)CSC3=C2C#N)cc1OC (configuration not stated),IC50,[2],> 50 µM (not active)
same,IC50,[3],> 50 µM (inactive)
same,IC50,[4],> 56.8 µM (not active)
same,IC50,[5],> 100 µM (active)
same,EC50,[6],> 112 µM (not active)
same,EC50,[7],> 112 µM (not active)
CC(C)(C)c1cc(NC(=O)CCl)n(-c2ccccc2)n1,EC50,Protein RecA,13.6 µM (active)
same,AC50,[8],65.1 µM (active)
same,IC50,[9],1.79 µM (active)
CCOCCCNc1nc(S)nc2cc(OC)c(OC)cc12,IC50,[10],83 µM (active)
same,EC50,[11],> 50 µM (not active)
Cc1cc(C)c2nc(NNC(=O)c3ccc(S(=O)(=O)N4CCCC(C)C4)cc3)sc2c1 (configuration not stated),AC50,INS1,1.81 µM (active)
same,EC50,cells [12],8.41 µM (active)
same,EC50,Streptokinase A,> 150 µM (not active)
same,EC50,[13],3.22 µM (active)
same,EC50,Galanin receptor type 2,> 55.7 µM (not active)
same,EC50,Streptococcus,11.5 µM (active)
same,EC50,cells [14],> 350 µM (not active)
same,EC50,[15],0.55 µM (active)
same,EC50,[16],1.79 µM (active)
COc1ccc(CNc2ncnc3ccc(-c4ccccc4OC)cc23)c(OC)c1,AC50,Cytochrome P450 2C19,3.98 µM (inconclusive)
